We go through two compounds from patent US20130197032A1, “[…] COMPOUNDS FOR THE TREATMENT OF NEUROLOGICAL AND […] DISORDERS” (A. CARLSSON RESEARCH AB, priority 2010, published 2013).

A value given as a limit tells only on which side of the number the result lay.

The conditions of data set [1]: Sonesson's thesis 1995; cited from earlier work.
The target in data set [2] is T1, human D1 receptor (Homo sapiens, UniProt P21728).
T1 construct: expressed in transfected cells; host or cells: NIH-3T3 (inferred: R-SAT host; D1 is in neither method list of b200)
T1 sequence (P21728 whole entry): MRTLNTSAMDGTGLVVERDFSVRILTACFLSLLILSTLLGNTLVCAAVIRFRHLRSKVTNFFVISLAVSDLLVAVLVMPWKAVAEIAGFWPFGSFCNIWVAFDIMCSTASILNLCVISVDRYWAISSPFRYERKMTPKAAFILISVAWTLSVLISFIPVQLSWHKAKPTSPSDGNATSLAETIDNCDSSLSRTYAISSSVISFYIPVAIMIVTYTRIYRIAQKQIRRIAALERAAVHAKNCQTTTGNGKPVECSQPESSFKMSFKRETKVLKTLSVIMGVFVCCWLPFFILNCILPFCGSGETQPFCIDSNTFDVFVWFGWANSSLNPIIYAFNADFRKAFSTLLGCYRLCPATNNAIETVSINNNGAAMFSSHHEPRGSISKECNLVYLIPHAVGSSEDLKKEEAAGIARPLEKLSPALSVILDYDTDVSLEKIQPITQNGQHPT
The experiment in a line: R-SAT assay D1. It counts as cell-based. The following applies: Table 3, D1; percent response of reference SKF 38393.

Data set [3] concerns the target human 5-HT6 receptor (Homo sapiens, UniProt P50406). The experiment in a line: R-SAT assay 5-HT6. It counts as cell-based. The following applies: Table 3, 5-HT6.
Data set [4] addresses T2, human D5 receptor (Homo sapiens, UniProt P21918).
T2 construct: expressed in transfected cells; host or cells: NIH-3T3 (inferred: R-SAT host; D5 is in neither method list of b200)
The experiment in a line: R-SAT assay D5. It counts as cell-based. The following applies: Table 3, D5; percent response of reference SKF 38393.

The target of data set [5] is T3, human D3 receptor (Homo sapiens, UniProt P35462).
T3 construct: expressed in transfected cells
T3 sequence (P35462 whole entry): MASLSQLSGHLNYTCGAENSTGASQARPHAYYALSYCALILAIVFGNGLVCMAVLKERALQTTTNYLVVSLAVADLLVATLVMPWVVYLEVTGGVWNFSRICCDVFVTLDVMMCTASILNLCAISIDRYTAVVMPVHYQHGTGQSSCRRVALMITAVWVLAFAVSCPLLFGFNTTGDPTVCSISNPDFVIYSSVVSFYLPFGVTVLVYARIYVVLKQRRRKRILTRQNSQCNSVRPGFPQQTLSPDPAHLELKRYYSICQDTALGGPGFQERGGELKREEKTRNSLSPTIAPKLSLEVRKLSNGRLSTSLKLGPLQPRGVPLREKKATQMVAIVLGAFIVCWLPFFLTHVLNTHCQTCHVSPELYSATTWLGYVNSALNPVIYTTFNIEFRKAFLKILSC
The data set can be described thus: R-SAT assay D3. The following applies: Table 3, D3. It counts as cell-based.

The target of data set [6] is 5-HT2B receptors (Homo sapiens, UniProt P41595). The data set can be described thus: PI hydrolysis assay on 5-HT2B receptors.
Sequence of 5-HT2B receptors (P41595 whole entry): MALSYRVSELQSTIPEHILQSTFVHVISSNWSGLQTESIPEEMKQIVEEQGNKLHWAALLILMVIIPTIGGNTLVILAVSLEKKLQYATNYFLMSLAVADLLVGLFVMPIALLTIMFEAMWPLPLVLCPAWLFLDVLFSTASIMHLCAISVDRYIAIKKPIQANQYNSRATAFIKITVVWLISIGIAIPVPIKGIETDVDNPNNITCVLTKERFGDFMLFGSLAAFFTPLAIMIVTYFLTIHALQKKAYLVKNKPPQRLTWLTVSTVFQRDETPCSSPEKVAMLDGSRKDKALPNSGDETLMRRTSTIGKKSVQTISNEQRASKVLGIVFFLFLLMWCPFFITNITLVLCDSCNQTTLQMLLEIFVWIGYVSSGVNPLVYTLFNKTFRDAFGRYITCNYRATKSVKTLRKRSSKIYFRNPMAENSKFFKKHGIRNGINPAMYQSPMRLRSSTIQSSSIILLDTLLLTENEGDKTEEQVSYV
Method: After lysing the cells with 50 μl of 0.1M formic acid, 20 μl each cell lysate was mixed with 80 μl (1 mg) RNA Binding YSi-SPA beads (GE Healthcare, Chalfont St. Giles, UK) on PICO plates (PerkinElmer) and counted on a TopCount (Packard).
Data set [7] deals with T4, human M5 receptor (Homo sapiens, UniProt P08912).
T4 construct: expressed in transfected cells; host or cells: NIH/3T3 cells, transient transfection, pSI vector
T4 sequence (P08912 whole entry): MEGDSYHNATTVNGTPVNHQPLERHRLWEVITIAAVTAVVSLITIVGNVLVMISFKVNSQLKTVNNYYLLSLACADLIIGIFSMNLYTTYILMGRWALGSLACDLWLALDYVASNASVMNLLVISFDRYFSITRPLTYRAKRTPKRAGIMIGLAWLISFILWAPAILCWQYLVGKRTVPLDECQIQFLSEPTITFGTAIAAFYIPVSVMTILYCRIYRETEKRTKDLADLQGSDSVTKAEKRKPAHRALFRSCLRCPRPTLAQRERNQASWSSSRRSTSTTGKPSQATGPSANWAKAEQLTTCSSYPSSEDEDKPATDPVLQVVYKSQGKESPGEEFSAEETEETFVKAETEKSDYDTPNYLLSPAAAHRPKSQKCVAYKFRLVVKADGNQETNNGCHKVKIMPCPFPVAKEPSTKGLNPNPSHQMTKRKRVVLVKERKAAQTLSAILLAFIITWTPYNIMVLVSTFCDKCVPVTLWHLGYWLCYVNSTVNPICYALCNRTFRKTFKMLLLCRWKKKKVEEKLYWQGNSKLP
The data set can be described thus: R-SAT assay M5. The following applies: Table 3, M5; percent response of reference Carbachol. It counts as cell-based.

The conditions of data set [8]: clinical observation; cited from earlier work.
Data set [9] addresses dopamine D2/D3 receptors. The following applies: read-out: Ki, affinity for dopamine D2/D3 receptors; in vitro binding studies, background; cited from earlier work.
In data set [10] the target is D2 receptors (Homo sapiens, UniProt P14416). The data set can be described thus: BRET2 functional antagonism of dopamine at D2 (Schild analysis). It counts as cell-based. More on the design: expressed in transfected cells; host or cells: HEK-293T.
Sequence of D2 receptors (P14416 1-414 isoform P14416-2): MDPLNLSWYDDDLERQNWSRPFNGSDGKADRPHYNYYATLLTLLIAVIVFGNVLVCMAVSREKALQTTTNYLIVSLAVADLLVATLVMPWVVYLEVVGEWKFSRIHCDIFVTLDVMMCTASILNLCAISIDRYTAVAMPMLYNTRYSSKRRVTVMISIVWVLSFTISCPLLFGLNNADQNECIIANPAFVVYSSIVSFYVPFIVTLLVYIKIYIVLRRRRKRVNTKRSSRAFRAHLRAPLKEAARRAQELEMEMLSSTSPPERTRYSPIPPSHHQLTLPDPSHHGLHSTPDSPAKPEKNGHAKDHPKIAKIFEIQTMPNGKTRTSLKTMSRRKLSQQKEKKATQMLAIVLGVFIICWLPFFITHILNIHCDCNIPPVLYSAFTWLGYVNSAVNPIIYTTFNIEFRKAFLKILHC
Method: BRET-2 signals were measured using the multiplate reader Mithras 940LB (Berthold Technologies, Bad Wildbad, Germany) and were calculated as the ratio between the Renilla luciferase emission and the GFP2 emission corrected by the background emissions of non-transfected cells.
A Schild plot (B) was constructed using the EC50 values derived from the curves in (A). The Schild plot was fitted using linear regression in GraphPad Prizm.

Sequence of human 5-HT6 receptor (P50406 whole entry): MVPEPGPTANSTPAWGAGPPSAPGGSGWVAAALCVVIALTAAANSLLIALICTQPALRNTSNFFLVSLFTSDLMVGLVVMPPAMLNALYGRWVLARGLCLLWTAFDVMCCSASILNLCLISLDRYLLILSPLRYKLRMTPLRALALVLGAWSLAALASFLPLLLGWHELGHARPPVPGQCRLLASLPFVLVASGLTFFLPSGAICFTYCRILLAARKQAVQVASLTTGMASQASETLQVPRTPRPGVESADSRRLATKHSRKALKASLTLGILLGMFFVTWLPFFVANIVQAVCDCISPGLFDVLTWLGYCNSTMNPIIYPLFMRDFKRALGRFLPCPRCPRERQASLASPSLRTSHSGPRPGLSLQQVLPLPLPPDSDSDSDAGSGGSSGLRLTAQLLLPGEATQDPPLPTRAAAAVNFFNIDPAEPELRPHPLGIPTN
T2 sequence (P21918 whole entry): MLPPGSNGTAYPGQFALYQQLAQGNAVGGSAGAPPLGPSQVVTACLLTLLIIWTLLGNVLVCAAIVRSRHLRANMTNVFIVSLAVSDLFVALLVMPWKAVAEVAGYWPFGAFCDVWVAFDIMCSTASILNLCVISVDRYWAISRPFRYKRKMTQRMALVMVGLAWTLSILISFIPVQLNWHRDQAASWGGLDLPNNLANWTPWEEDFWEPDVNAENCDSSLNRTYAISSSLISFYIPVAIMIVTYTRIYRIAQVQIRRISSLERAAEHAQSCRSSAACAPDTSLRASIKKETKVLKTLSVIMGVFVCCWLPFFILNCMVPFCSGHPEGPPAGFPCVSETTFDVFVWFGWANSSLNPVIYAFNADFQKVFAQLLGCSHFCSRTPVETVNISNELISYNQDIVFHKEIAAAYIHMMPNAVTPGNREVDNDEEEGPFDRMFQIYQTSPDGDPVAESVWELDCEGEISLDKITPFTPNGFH

Regarding `CCCN1CCC[C@H](c2cccc(S(C)(=O)=O)c2)C1` [(+)-OSU6162, (3R)-3-[3-(methylsulfonyl)phenyl]-1-propylpiperidine], the “change in behavioral activity” value in data set [1] is reported as “not to induce any change in behavioral activity”.
Regarding `CCCN1CCC[C@@H](c2cccc(S(C)(=O)=O)c2)C1` [(−)-OSU6162, (3S)-3-[3-(methylsulfonyl)phenyl]-1-propylpiperidine], the “Eff (%)” value in [2] is given as 11%; in data set [3] (percent response of reference 5-CT), 52%; in data set [4], 10%; in [5] (percent response of reference Pergolide), 54%; in [7] it was −5%. The EC50 was above 10 µM in data set [3] (negative logarithm of EC50 in molar, read-out: pEC50 (converted)); 3.98 µM in data set [5] (negative logarithm of EC50 in molar); 0.631 µM in [6]. Further, the “efficacy in PI hydrolysis assays on 5-HT2B receptors” value in data set [6] (data not shown) was found to be 24%. Also, the hallucinogenic activity entry in data set [8] is given as “no hallucinogenic activity”. The Ki in data set [9] is 0.447 µM. Also, the “slope of the Schild analysis” value in [10] (functional antagonism of dopamine in BRET2 assays) was “nearly unity”. Further, the Kb in data set [10] (read-out: pKb from the Schild analysis (converted)) is 1.26 µM.
